Source: patent US20220175675A1, “ENCAPSULATING MOLECULES IN FAT GLOBULES” (The Regents of the University of California, priority 2019, published 2022)
Where “and” joins values, the source holds several entries; their conditions need not be identical. Identical values can stand only once. Like-named read-outs stand apart in the source and are kept apart here. Marks after values point to notes of the source that are not given here.

What was measured:
[1] = cited from earlier work
[2] = cited from earlier work; for Log P: octanol/water; for Water/octanol partitioning coefficient, Log P: Measured or estimated, from references
[3] = Encapsulation of hydrophobic compounds into milk fat globules (loading capacity, encapsulation efficiency); assay type: physicochemical, bovine; settings: 10% v/v ethanol, 30 min; for % Encapsulation efficiency / maximal loading capacity (LC): room temperature; for maximal loading capacity (LC): maximal value over 50-2500 μM
Protocol: Raw milk was procured from a local market and stored at 4° C. Milk was used for up to 4 days post purchase. MFGs were separated from raw milk using centrifugal separation following a modified version of the method by Gallier et al. (2010) (12). First, raw milk was diluted with Milli-Q water at 9:1 water to milk, and the solution was centrifuged at 3,000×g for 5 min using a fixed angle centrifuge rotor. Cream was then skimmed off the sides of the centrifuged tubes after discarding the aqueous phase. In order to remove more of the milk serum components, cream was reconstituted in water to reach 4% w/v, and subjected to another step of centrifugation at 3,000×g for 5 min Cream was collected as detailed prior, then reconstituted to 20% w/v in Milli-Q water. All separation steps were completed at room temperature.
Encapsulation of test compounds in MFGs was accomplished by mixing ethanolic stock solution of a compound with 20% w/v cream suspended in water. The mixture was gently inverted several times to mix, then allowed in incubate in the dark.
To test the effect of incubation temperature on the partitioning and encapsulation yield and efficiency, RA was added at 250 μM concentration and was allowed to incubate with MFGs for 30 min at 4, 22, and 40° C.
To quantify the amount of compound encapsulated in MFGs, cream was separated from ethanol-containing aqueous phase via centrifugal separation at 3,000 x g for 5 min. Cream was skimmed and added to methanol at 50 mg/mL and vortexed vigorously for 1 min, then centrifuged at 16,000×g for 10 min. Top layer of methanol was collected and absorbance was measured at appropriate wavelength for each compound. An absorbance blank was prepared following the same encapsulation and separation steps in the absence of compound. λmax in methanol (nm) for each compound is reported in Table 1.
Cream (20% w/v in Milli-Q water) that was separated following the steps in Example 2 was further separated via centrifugation at 3,000×g for 5 min. Fat content in cream was measured using a modified Folch method (13). An additional washing step was incorporated where the chloroform/water interface was washed with 1:1 water/methanol solution.

[4] = Water/octanol partitioning coefficient, Log P
Description: One such molecular property that is used to predict partitioning potential is the octanol—water partition coefficient; Log P, which is the logarithm of the ratio of the solute concentration in the octanol phase to the solute concentration in the water phase, at a defined temperature.

[5] = Loading of curcumin in milk fat globules; assay type: physicochemical, bovine
Protocol: Raw milk was used within 3-4 days of purchasing during which it was stored at 4° C. MFGs were isolated using a modified form of the method by […] et al. (2010) ^3° . […] Raw cream that was separated following the method stated in Example 31 was used for the quantification of oil content per gram of raw cream. […] The two immiscible phases were separated. […] Chloroform extracts were combined and the solvent was removed under vacuum at room temperature for 24 h. Mass of the isolated lipid from the sample was measured gravimetrically. Measurements were completed in triplicated from independent raw milk samples. […] Incubation was completed in the dark to prevent photodegradation of curcumin. […] Encapsulations measurements were conducted in triplicates. […] The mixture was then vortexed rigorously, followed by centrifugation at 16,000×g for 10 min. […] Curcumin containing samples were kept covered throughout the extraction and measurements steps. The encapsulation efficiency was calculated as follows: where CE is the mass of curcumin extracted from MFGs, and […]. The loading capacity was calculated as follows: where CE is the mass of curcumin extracted from MFGs, and MF is the mass of milk fat in MFGs suspension.

[6] = AAPH measurement of curcumin oxidative stability; assay type: physicochemical
Protocol: 100 mg/ml encapsulated oleosome and encapsulated whey protein emulsion were respectively added with 40mM AAPH (Sigma) or water as control. Encapsulated oleosome and whey protein emulsion were then rotated and curcumin was extracted at different time points.

[7] = 200 μg/g added curcumin/cream, 1 v/v % ethanol, 10 min
[8] = 400 μg/g added curcumin/cream, 2 v/v % ethanol, 10 min
[9] = 600 μg/g added curcumin/cream, 3 v/v % ethanol, 10 min
[10] = 1000 μg/g added curcumin/cream, 5 v/v % ethanol, 10 min
[11] = 1600 μg/g added curcumin/cream, 8 v/v % ethanol, 10 min
[12] = 2000 μg/g added curcumin/cream, 10 v/v % ethanol, 10 min

In the case of `CCOC(=O)C1=C(COCCN)NC(C)=C(C(=O)OC)C1c1ccccc1Cl` (stereo not shown) [Amlodipine], the “solubility in water (Remarks)” value [1] is given as “Drug sparingly soluble in water. Special only has 1-month shelf-life”.
In the case of `CC(=O)Oc1ccccc1C(=O)O` [Aspirin], the “solubility in water (Remarks)” value [1] is listed as “Very water soluble drug-use dispersible tablets”.
In the case of `COc1ccccc1OCCNCC(O)COc1cccc2[nH]c3ccccc3c12` (stereo not shown) [Carvedilol], the “solubility in water (Remarks)” value [1] is given as “Drug sparingly soluble in water. Special only has 1-month shelf-life”.
In the case of `O=C1Nc2ccc(Cl)cc2[C@@](C#CC2CC2)(C(F)(F)F)O1` [Efavirenz], the Waters solubility [1] is given as 8.55 µg/mL and the “Log P” value [2] is given as 3.89-4.46.
For `CCOC(=O)[C@H](CCc1ccccc1)N[C@@H](C)C(=O)N1CCC[C@H]1C(=O)O` [Enalapril], the “solubility in water (Remarks)” value [1] is listed as “Drug sparingly soluble in water. Crushed tablets suspended in water”.
For `O=c1c(O)c(-c2ccc(O)c(O)c2)oc2cc(O)ccc12` [Fisetin], the “% Encapsulation efficiency” value ([3]; 50 μM added compound) was 28.64 ± 5.20%, the “% Encapsulation efficiency” value ([3]; 100 μM added compound) was 29.16 ± 1.50% and the “% Encapsulation efficiency” value ([3]; 150 μM added compound) was 30.55 ± 3.76%. The “% Encapsulation efficiency” value ([3]; 200 μM added compound) was 29.83 ± 2.47%, the “% Encapsulation efficiency” value ([3]; 250 μM added compound) was 28.41 ± 1.56% and the “% Encapsulation efficiency” value ([3]; 500 μM added compound) was 15.89 ± 1.42 %. For the same compound, the “% Encapsulation efficiency” value ([3]; 1000 μM added compound) was 15.16 ± 1.46 %, the “% Encapsulation efficiency” value ([3]; 1500 μM added compound) was 7.57 ± 0.43 % and the “% Encapsulation efficiency” value ([3]; 2000 μM added compound) was 14.26 ± 2.77 %. The “% Encapsulation efficiency” value ([3]; 2500 μM added compound) was 4.49 ± 1.08 %, the “maximal loading capacity (LC)” value [3] was 9.77 μg per gram of milk fat and the “Water/octanol partitioning coefficient, Log P” value [2] was 0.464-2.52 ^(14, 15). The logP [4] was about 1.5.
For `CC(C)(C)NCC(O)COc1cccc2c1CC(O)C(O)C2` (stereo not shown) [Nadolol], the “solubility in water (Remarks)” value [1] is given as “Drug sparingly soluble in water. Special only has 1-month shelf-life”.
For `CC[C@H](C)C(=O)O[C@H]1C[C@H](O)C=C2C=C[C@H](C)[C@H](CC[C@@H](O)C[C@@H](O)CC(=O)O)[C@H]21` [Pravastatin], the “solubility in water (Remarks)” value [1] is listed as “Drug freely soluble in water, crushed tablets often dissolved in water”.
With `O.O=c1c(O)c(-c2ccc(O)c(O)c2)oc2cc(O)cc(O)c12` [Quercetin hydrate] the “% Encapsulation efficiency” value ([3]; 50 μM added compound) was 25.27 ± 3.47^ %, the “% Encapsulation efficiency” value ([3]; 100 μM added compound) was 45.35 ± 8.53 % and the “% Encapsulation efficiency” value ([3]; 150 μM added compound) was 43.78 ± 4.16 %. For the same compound, the “% Encapsulation efficiency” value ([3]; 200 μM added compound) was 50.09 ± 3.71 %, the “% Encapsulation efficiency” value ([3]; 250 μM added compound) was 48.95 ± 3.47 % and the “% Encapsulation efficiency” value ([3]; 500 μM added compound) was 49.00 ± 1.17 %. The “% Encapsulation efficiency” value ([3]; 1000 μM added compound) was 12.91 ± 1.78 %, the “% Encapsulation efficiency” value ([3]; 1500 μM added compound) was 18.38 ± 9.27 % and the “% Encapsulation efficiency” value ([3]; 2000 μM added compound) was 17.92 ± 4.31 %. The “% Encapsulation efficiency” value ([3]; 2500 μM added compound) was 13.70 ± 1.30 %, the “maximal loading capacity (LC)” value [3] was 12.97 μg per gram of milk fat and the “encapsulation efficiency (EE %), maximal/overall value” ([3]; over tested concentrations) was 50%. The “Water/octanol partitioning coefficient, Log P” value [2] was 1.82-2.075 ^(16, 17).
For `CCOC(=O)[C@H](CCc1ccccc1)N[C@@H](C)C(=O)N1[C@H](C(=O)O)C[C@@H]2CCC[C@@H]21` [Ramipril], the “solubility in water (Remarks)” value [1] is given as “Drug sparingly soluble in water. Crushed tablets suspended in water”.
For `CC(=O)CC(c1ccccc1)c1c(O)c2ccccc2oc1=O` (stereo not shown) [Warfarin], the “solubility in water (Remarks)” value [1] is given as “Drug freely soluble in water, crushed tablets often dissolved in water”.
In the case of `COc1cc(/C=C/C(=O)CC(=O)/C=C/c2ccc(O)c(OC)c2)ccc1O` [curcumin], the “increase in encapsulation yield compared to reported loading values in emulsions formed using edible oils” value [5] is reported as “at least 3 folds”, the EE % [5, 7] is reported as 62.09 ± 1.46% and the “LC %, curcumin/milk fat” value [5, 7] is reported as 368 μg/g and 368.11 ± 2.92 ^a μg/g. For the same compound, the EE % [5, 8] was 61.17 ± 2.13%, the “LC %, curcumin/milk fat” value [5, 8] was 244.69 ± 8.53 ^b μg/g and the EE % [5, 9] was 62.10 ± 2.54%. The “LC %, curcumin/milk fat” value [5, 9] was 372.60 ± 15.27 ^c μg/g, the EE % [5, 10] was 66.56 ± 0.13 % and the “LC %, curcumin/milk fat” value [5, 10] was 665.55 ± 1.31 ^d μg/g. The EE % [5, 11] was 62.55 ± 0.37%, the “LC %, curcumin/milk fat” value [5, 11] was 1000.76 ± 5.97 ^e μg/g and the EE % [5, 12] was 59.33 ± 0.73%. For the same compound, the “LC %, curcumin/milk fat” value [5, 12] was 1186.65±14.63 μg/g and 1186 μg/g and 1186.65 ± 14.63 ^ μg/g, the “EE % range over curcumin and ethanol concentrations” value ([5]; 200-2000 μg/g of raw cream, 1 to 10% v/v ethanol, 10 min) was 59-64% and the EE % ([5]; Incubation time 10 min, fixed concentration of curcumin and ethanol) was 62.36 ± 1.85%. The EE % ([5]; Incubation time 20 min, fixed concentration of curcumin and ethanol) was 66.43 ± 4.32%, the EE % ([5]; Incubation time 30 min, fixed concentration of curcumin and ethanol) was 61.20 ± 1.78% and the EE % ([5]; Incubation time 40 min, fixed concentration of curcumin and ethanol) was 59.75 ± 2.10%. The EE % ([5]; Incubation time 50 min, fixed concentration of curcumin and ethanol) was 57.24 ± 0.83 %, the EE % ([5]; Incubation time 60 min, fixed concentration of curcumin and ethanol) was 64.30 ± 2.42% and the “curcumin encapsulated per gram of milk fat” value ([5]; MFGs, simple diffusion) was “Greater than 1000 μg”. The curcumin absorbance remaining ([6]; WPI control group (water), at 20 and 24 h) was 90%, the curcumin absorbance remaining ([6]; WPI, 40mM AAPH) was 0.03% and the curcumin absorbance remaining ([6]; WPI, 40mM AAPH, 20 h) was 22%. The curcumin absorbance remaining ([6]; WPI, 40mM AAPH, 24 h) was 12%, the curcumin absorbance remaining ([6]; oleosome control group (water), within 46 h) was “above 90%” and the curcumin absorbance remaining ([6]; oleosome, 40mM AAPH) was 42%. For the same compound, the curcumin absorbance remaining ([6]; oleosome, 40mM AAPH, 20 h) was 76%, the curcumin absorbance remaining ([6]; oleosome, 40mM AAPH, 24 h) was 68% and the “Log P” value [2] was 4.3. For the same compound, the “Log P” value ([2]; listed as Curcumin) was “approximately 4.3”.
